In data set [1] the test system is sciatic nerve entrapment model rats (Bennett model rats). The data set can be described thus: Injury-preventive effect in partial nerve injury models, paw pressure (Randall-Selitto) method. It counts as in vivo, Spraugue-Dawley rats. On the procedure:
(§1) For a hyperalgesia model animal, sciatic nerve entrapment model rats (Bennett model rats) serving as partial nerve injury models, were used. That is, four-week-old male Spraugue-Dawley rats (Japan SLC, Inc.) were housed under a constant temperature and humidity condition for a week. Then, under anesthesia with pentobarbital (50 mg/kg), the sciatic nerve in the left hind paw was stripped from tissue, and raised using tweezers to slightly stretch the axon part. […] The right hind paw was left untreated and used as a normal paw. The operated site was disinfected with Isodine everyday in the first post-operative week to prevent infection.
As the test substance, compound 24 synthesized in Preparation Example 24 was used.
The nerve-injured paw (operated side) and the normal paw (untreated side) of each individual were previously subjected to an analgesic test, subsequently followed by Bennett operation. Furthermore, a single dose of the test substance (8 mg/kg) was intraperitoneally administered from the day of the operation, everyday for a week. The control group was administered with the vehicle of the test substance during the same period. After one week from the start of administration, the nerve injured paw (operated side) and the normal paw (untreated side) of each rat were again subjected to an analgesic test. […]

For data set [2] the test system is unchanged. The data set can be described thus: Analgesic effect in partial nerve injury models, paw pressure (Randall-Selitto) method. The class given is in vivo, Spraugue-Dawley rats. The note with it: for pain threshold of the nerve-injured paw: started after hyperalgesia confirmed, FIG. 2. On the procedure: as §1, with “for use” for “and used”
As the test substance, 3-(15-hydroxypentadecyl)-2,4,4-trimethyl-2-cyclohexen-1-one (hereafter, also referred to as compound 24) synthesized in Preparation Example 24 was used.
Rats showing reduction of pain threshold by 30% or more in the nerve-injured paw, and change in pain threshold within a range of 5% in the normal paw, as compared to preoperative values, were used for the experiment. Prior to administration of the test substance, the nerve-injured paw (operated side) and the normal paw (untreated side) of each individual were subjected to an analgesic test. Furthermore, the test substance-administered group was intraperitoneally administered with a single dose of the test substance (8 mg/kg, 24 mg/kg, and 40 mg/kg) everyday for a week. The control group was administered with the vehicle of the test substance during the same period. After one week from the start of administration, the nerve-injured paw (operated side) and the normal paw (untreated side) of each rat were again subjected to an analgesic test.
The paw pressure (Randall-Selitto) method using pressure stimuli was employed as the analgesic test. Mechanical pressure stimuli were applied on the dorsal portion of the rat hind paw by an analgesimeter, and the minimum value of pressure stimulus at which vocalization or withdrawal occurred was defined as pain threshold. In the measurement of pain threshold according to the paw pressure method, a rat has to be held down and restrained. […]

Data set [3] concerns STZ-induced diabetic model mice. Put plainly: Improving effect in dullness models, formaldehyde-induced licking and biting behavior. It counts as in vivo, ddY mice. The note with it: a week of intraperitoneal administration (8, 24 and 40 mg/kg) with the STZ administration; 1% formaldehyde into plantar; FIG. 4. On the procedure:
Four-week-old male ddY mice were administered with a single dose of streptozotocin (hereunder, also referred to as STZ) (200 mg/kg) by tail vein injection, everyday for a week. For 24 hours after STZ administration, the rats were allowed to freely take a 10% glucose solution instead of drinking water, and then allowed to freely take distilled water. As the test substance, compound 24 synthesized in Preparation Example 24 was used. Concurrently with the start of STZ administration, the test substance-administration group was intraperitoneally administered with a single dose of the test substance (8 mg/kg, 24 mg/kg, and 40 mg/kg) everyday for a week. The control group was administered with the vehicle of the test substance during the same period. The blood glucose level of the tail venous blood was measured by a blood glucose meter (DEXTER ZII: Bayer Medical Ltd.). Individuals with a blood sugar level of 400 mg/dL or more, were used for the experiment. After a week of STZ administration, the mice were subcutaneously injected with 1% formaldehyde solution (20 μL) into the plantar of the left hind paw. The total time spent for licking (licking of plantar of the left hind paw) behavior and biting (biting of plantar of the left hind paw) behavior was scored every 5 minutes after administration, for 60 minutes.

Regarding `O=C1C=C(CCCCCCCCCCCO)CCC1` [Preparation Example 2, 3-(11-hydroxyundecyl)-2-cyclohexen-1-one], the melting point is 34 to 35 °C.
On the same count and under the same terms, the result for `O=C1C=C(CCCCCCCCCCCCO)CCC1` [Preparation Example 3, 3-(12-hydroxydodecyl)-2-cyclohexen-1-one] reads 35 to 36 °C; that for `O=C1C=C(CCCCCCCCCCCCCO)CCC1` [Preparation Example 4, 3-(13-hydroxytridecyl)-2-cyclohexen-1-one], 42 to 43 °C.
Still for that read-out and setting: under `O=C1C=C(CCCCCCCCCCCCCCO)CCC1` [Preparation Example 5, 3-(14-hydroxytetradecyl)-2-cyclohexen-1-one] stands 44 to 45 °C.
Take `CC1=C(CCCCCCCCCCCCCCCO)C(C)(C)CCC1=O` [compound 24, 3-(15-hydroxypentadecyl)-2,4,4-trimethyl-2-cyclohexen-1-one]: the “pain threshold of the nerve-injured paw after the Bennett operation” value in data set [1] (8 mg/kg intraperitoneally from the day of the operation, everyday for a week, FIG. 3) was “no significant change in pain threshold”. The “pain threshold of the normal paw” value in data set [1] (normal paw (untreated side), 8 mg/kg intraperitoneally everyday for a week) was “no significant change in pain threshold”; in data set [2] (normal paw (untreated side), after the one-week administration period, intraperitoneal), “no significant change in pain threshold”. In addition, the “pain threshold of the nerve-injured paw” value in data set [2] (24 mg/kg intraperitoneally once a day for a week) and in data set [2] (40 mg/kg intraperitoneally once a day for a week) was “significant increase in pain threshold” in each case. In addition, the “Phase II pain response (total time spent for licking and biting behavior)” value in data set [3] is “improved Phase II torpor”.

The values are drawn from patent publication US20090069442A1, “Therapeutic Agent for Sensory Abnormality” (priority 2005, published 2009).
